What was measured:
Sir2La [1] = target: T1, Sir2La (Lactobacillus acidophilus, UniProt Q5FMQ6); assay: end-point fluorogenic deacylase assay; assay type: biochemical
T1 sequence (Q5FMQ6 1-239): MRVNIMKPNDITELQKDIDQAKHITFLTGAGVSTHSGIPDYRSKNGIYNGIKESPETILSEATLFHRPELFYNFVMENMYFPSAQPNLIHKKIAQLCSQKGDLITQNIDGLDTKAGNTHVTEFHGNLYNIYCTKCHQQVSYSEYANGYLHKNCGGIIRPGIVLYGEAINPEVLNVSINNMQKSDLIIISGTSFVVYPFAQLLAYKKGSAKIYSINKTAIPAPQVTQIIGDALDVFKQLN

Sir2La [2] = target: T1, Sir2La; assay: biochemical; conditions: 6 IC50 (µM), continuous, continuous assay
Sir2La [3] = target: T1, Sir2La; assay: fluorogenic deacylase assay; assay type: biochemical; conditions: read-out: % residual activity at 50 μM

| SMILES | IC50 (Sir2La [1]) [µM] | IC50 (Sir2La [2]; Ac-LGKac-AMC (2b)) [µM] | IC50 (Sir2La [2]; Ac-LGKpro-AMC (2c)) [µM] | remaining activity at 50 µM (Sir2La [3]) [%] |
| --- | --- | --- | --- | --- |
| CC(=S)NCCCC[C@H](NC(=O)OCc1ccccc1)C(=O)N[C@@H](Cc1c[nH]c2ccccc12)C(=O)NC(C)C [compound 6, thioacetamide 6] | 15 ± 2 | 5.8 ± 0.1 | 12 |  |
| CNC(=S)NCCCC[C@H](NC(=O)OCc1ccccc1)C(=O)N[C@@H](Cc1c[nH]c2ccccc12)C(=O)NC(C)C [compound 7, thiourea 7] |  |  |  | 77 |
| NC(=O)c1cccnc1 [nicotinamide] | 350 ± 70 |  |  |  |
| Cc1ccc(C(=O)Nc2ccc(S(=O)(=O)O)c3cc(S(=O)(=O)O)cc(S(=O)(=O)O)c23)cc1NC(=O)c1cccc(NC(=O)Nc2cccc(C(=O)Nc3cc(C(=O)Nc4ccc(S(=O)(=O)O)c5cc(S(=O)(=O)O)cc(S(=O)(=O)O)c45)ccc3C)c2)c1 [suramin] | 100 ± 30 |  |  |  |
